From ChEMBL document CHEMBL4321806 (J Med Chem, 2019)
Calls of active or inactive are those of the source. The rule behind the calls is not given here.

Key:
NIH3T3 = experiment: Cytotoxicity against mouse 3T3 cells assessed as reduction in cell viability; assay type: cell-based
[1] = Cytotoxicity against mouse L929 cells assessed as reduction in cell viability
HFF-1 = experiment: Cytotoxicity against human HFF1 cells assessed as reduction in cell viability; assay type: cell-based
[2] = molecular target: T1, Broad substrate specificity ATP-binding cassette transporter ABCG2 (Homo sapiens, UniProt Q9UNQ0); experiment: Inhibition of BCRP (unknown origin)
T1 sequence (Q9UNQ0 whole entry): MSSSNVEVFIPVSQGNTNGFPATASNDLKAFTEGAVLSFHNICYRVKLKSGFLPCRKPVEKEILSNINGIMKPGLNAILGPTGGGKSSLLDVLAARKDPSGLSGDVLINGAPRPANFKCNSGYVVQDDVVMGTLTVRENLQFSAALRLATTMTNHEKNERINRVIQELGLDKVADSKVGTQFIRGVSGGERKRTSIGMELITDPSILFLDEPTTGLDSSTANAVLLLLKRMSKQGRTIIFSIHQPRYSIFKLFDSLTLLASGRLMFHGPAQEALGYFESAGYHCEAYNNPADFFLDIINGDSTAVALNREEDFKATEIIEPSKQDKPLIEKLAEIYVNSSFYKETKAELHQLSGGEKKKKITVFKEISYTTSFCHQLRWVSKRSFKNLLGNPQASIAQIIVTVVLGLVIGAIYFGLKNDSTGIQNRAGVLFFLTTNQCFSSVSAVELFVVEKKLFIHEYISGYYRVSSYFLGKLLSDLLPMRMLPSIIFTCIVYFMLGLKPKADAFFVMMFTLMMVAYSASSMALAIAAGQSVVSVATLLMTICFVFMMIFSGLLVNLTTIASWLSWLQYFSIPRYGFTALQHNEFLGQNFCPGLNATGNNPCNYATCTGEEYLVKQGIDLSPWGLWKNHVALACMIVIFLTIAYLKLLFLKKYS

HEK293 [3] = experiment: Cytotoxicity against human HEK293 cells assessed as reduction in cell viability after 5 days by MTS/PMS assay; assay type: cell-based; settings: HEK293, 120 h
2008 = experiment: Antiproliferative activity against human 2008 cells assessed as reduction in cell viability after 5 days by MTS/PMS assay; assay type: functional, cell-based; settings: Homo sapiens, 2008, 120 h
[4] = Antiproliferative activity against human LCC6 cells assessed as reduction in cell viability after 5 days by MTS/PMS assay; assay type: functional, cell-based; settings: LCC-6, 120 h
[5] = molecular target: T1, Broad substrate specificity ATP-binding cassette transporter ABCG2; experiment: Inhibition of BCRP (unknown origin) expressed in human HEK293/R2 cells assessed as increase in intracellular topotecan accumulation by measuring fold change at 1 uM after 120 mins in presence of topotecan by flow cytometry analysis relative to control; settings: 2 h
[6] = molecular target: T1, Broad substrate specificity ATP-binding cassette transporter ABCG2; experiment: Inhibition of vanadate sensitive BCRP ATPase activity in human S1-M1-80 cell membranes preincubated for 30 mins followed by ATP addition and measured after 1 hr by colorimetric assay
HEK293 [7] = experiment: Effect on intracellular topotecan level in human HEK293 cells at 5 uM up to 15 mins by flow cytometric analysis; assay type: functional, cell-based
Homo sapiens = species: Homo sapiens; experiment: Effect on BCRP protein expression in human HEK293/R2 cells at 1 to 3 uM after 4 days by flow cytometric analysis; assay type: functional, cell-based

Compound | IC50 (NIH3T3) [µM] | IC50 [1] [µM] | IC50 (HFF-1) [µM] | other results
COC(=O)c1cccc(COc2c(-c3ccc(OCCOCCOCCn4cc(CN(Cc5cn(CCOCCOCCOc6ccc(-c7oc8ccccc8c(=O)c7OCc7cccc(C(=O)OC)c7)cc6)nn5)c5ccccc5)nn4)cc3)oc3ccccc3c2=O)c1 | > 100 | > 100 | > 100 | 
COc1ccc2c3c([nH]c2c1)[C@H](C=C(C)C)N1C(=O)[C@@H]2CCCN2C(=O)[C@@H]1C3 [FUMITREMORGIN] |  |  |  | EC50 [2]: 1 to 5 µM
COC(=O)c1cccc(COc2c(-c3ccc(OCCOCCn4cc(CN(Cc5cn(CCOCCOc6ccc(-c7oc8ccccc8c(=O)c7OCc7cccc(C(=O)OC)c7)cc6)nn5)c5ccccc5)nn4)cc3)oc3ccccc3c2=O)c1 | > 100 | > 100 | > 100 | 
COc1ccc2c3c([nH]c2c1)[C@H](CC(C)C)N1C(=O)[C@H](CCC(=O)OC(C)(C)C)NC(=O)[C@@H]1C3 | > 100 | 31.4 | 56.5 | 
COC(=O)c1cccc(COc2c(-c3ccc(OCCOCCOCCn4cc(-c5cccc(-c6cn(CCOCCOCCOc7ccc(-c8oc9ccccc9c(=O)c8OCc8cccc(C(=O)OC)c8)cc7)nn6)c5)nn4)cc3)oc3ccccc3c2=O)c1 | > 100 | > 100 | > 100 | 
COc1cc2c(cc1OC)CN(CCc1ccc(NC(=O)c3cc(OC)c(OC)cc3NC(=O)c3cnc4ccccc4c3)cc1)CC2 |  |  |  | EC50 [2]: 0.1 µM
COC(=O)c1cccc(COc2c(-c3ccc(OCCOCCn4cc(COCc5cn(CCOCCOc6ccc(-c7oc8ccccc8c(=O)c7OCc7cccc(C(=O)OC)c7)cc6)nn5)nn4)cc3)oc3ccccc3c2=O)c1 | > 100 | > 100 | > 100 | 
COC(=O)c1cccc(COc2c(-c3ccc(OCCOCCn4cc(CN(Cc5ccccc5)Cc5cn(CCOCCOc6ccc(-c7oc8ccccc8c(=O)c7OCc7cccc(C(=O)OC)c7)cc6)nn5)nn4)cc3)oc3ccccc3c2=O)c1 | > 100 | > 100 | > 100 | 
O=C1c2c(O)ccc(O)c2C(=O)c2c(NCCNCCO)ccc(NCCNCCO)c21 [MITOXANTRONE] |  |  |  | IC50 (HEK293 [3]): 0.0117 µM; IC50 2008: 0.0078 µM; IC50 [4]: 0.0374 µM
COC(=O)c1cccc(COc2c(-c3ccc(OCCOCCn4cc(CCCc5cn(CCOCCOc6ccc(-c7oc8ccccc8c(=O)c7OCc7cccc(C(=O)OC)c7)cc6)nn5)nn4)cc3)oc3ccccc3c2=O)c1 | > 100 | > 100 | > 100 | 
COC(=O)c1cccc(COc2c(-c3ccc(OCCOCCn4cc(-c5cccc(-c6cn(CCOCCOc7ccc(-c8oc9ccccc9c(=O)c8OCc8cccc(C(=O)OC)c8)cc7)nn6)c5)nn4)cc3)oc3ccccc3c2=O)c1 | > 100 | > 100 | > 100 | FC [5]: 11 to 12; inhibition (INH) [6]: Dose-dependent effect; Activity (HEK293 [7]): inactive; Activity (Homo sapiens): inactive
